Results on nine compounds are retold here after patent US20030083271A1, “Topoisomerase I selective cytotoxic sugar derivatives of indolopyrrolocarbazoles” (priority 2001, published 2003).

Usually EC50 stands for the concentration that produces a half-maximal response. The term IC50 denotes the concentration that gives 50% inhibition.

The target of series [1] is T1, purified human topoisomerase I (Homo sapiens, UniProt P11387).
T1 construct: purchased Topogen
T1 sequence (P11387 1-765): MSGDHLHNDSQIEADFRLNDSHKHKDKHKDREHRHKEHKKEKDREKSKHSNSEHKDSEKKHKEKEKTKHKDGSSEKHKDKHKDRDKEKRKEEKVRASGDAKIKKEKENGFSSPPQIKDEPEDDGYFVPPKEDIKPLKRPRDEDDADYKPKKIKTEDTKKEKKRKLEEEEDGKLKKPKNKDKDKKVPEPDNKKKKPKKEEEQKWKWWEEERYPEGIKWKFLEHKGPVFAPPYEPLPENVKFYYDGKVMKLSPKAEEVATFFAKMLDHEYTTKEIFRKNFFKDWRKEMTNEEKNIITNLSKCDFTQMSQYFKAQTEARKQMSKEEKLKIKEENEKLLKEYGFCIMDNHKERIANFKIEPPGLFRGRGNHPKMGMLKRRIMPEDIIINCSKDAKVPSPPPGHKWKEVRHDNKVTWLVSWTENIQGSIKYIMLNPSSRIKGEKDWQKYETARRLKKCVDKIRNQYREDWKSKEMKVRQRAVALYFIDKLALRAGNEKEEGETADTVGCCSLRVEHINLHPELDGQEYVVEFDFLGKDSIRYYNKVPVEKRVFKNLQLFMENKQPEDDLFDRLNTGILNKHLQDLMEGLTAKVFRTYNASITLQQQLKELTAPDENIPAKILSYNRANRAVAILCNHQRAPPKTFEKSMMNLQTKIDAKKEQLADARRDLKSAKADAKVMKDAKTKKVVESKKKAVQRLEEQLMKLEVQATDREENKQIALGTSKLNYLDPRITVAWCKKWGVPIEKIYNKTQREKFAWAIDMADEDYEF
The experiment in a line: Topoisomerase I-mediated single strand DNA break induction (in vitro). As to conditions: median effect concentration for inducing single-strand breaks in the DNA substrate; read-out: Topo I EC50. The series is classed as biochemical. On the procedure: Topoisomerase I activity was measured as described below. The procedure for assaying compound-induced, topoisomerase I-mediated single strand breaks in DNA was essentially that described by Hsiang, et al., (J. Biol. Chem. 1985, 260, 14873-14878). Samples dissolved in 100% DMSO as either […] or 10 mg/ml solutions, unless otherwise stated, were diluted in Tris-EDTA buffer. Marine bacteriophage PM2 DNA (Boehringer Mannheim) was also diluted in Tris-EDTA buffer to a concentration of 0.02 μg/μl. Different dilutions of the compound being evaluated were mixed with diluted DNA and this mixture was added to […] (one unit of enzyme activity is defined as the amount capable of relaxing 100 ng of supercoiled DNA in approximately 30 minutes at 37° C.) aliquots of purified human topoisomerase I (Topogen) in 2X reaction buffer to start the reaction. The compound-DNA-enzyme mixture was incubated for 30 minutes at 37° C. before stopping the reaction with warm stop buffer containing sodium dodecyl sulfate and proteinase K (Sigma). These mixtures were allowed to incubate at 37° C. for another 10 minutes, at which time the mixtures were removed from the waterbath and extracted with a 24:1 mixture of chloroform/isoamyl alcohol. Following centrifugation, aliquots of the aqueous phases were placed in wells of a 0.9% agarose (SeaKem) gel in Tris-borate buffer containing 0.5 μg/ml of ethidium bromide and subjected to electrophoresis for 15 hours to separate the different topological isomers and nicked and broken DNAs. After destaining the gel in water, the ethidium bromide stained DNA reaction products were visualized by exposing the gel to UV irradiation. Negatives of the photographs of the irradiated gels were scanned with a densitometer and areas under the peaks were calculated in order to obtain percent single strand DNA break formation for each sample. A median effective concentration (EC50) was obtained for each compound by interpolation between points of the resulting dose-effect curve which defines the potency of the compound for its effect in inducing topoisomerase I-mediated single strand breaks in DNA. The topoisomerase I activities for certain compounds of the present invention are shown below in Table I.

In series [2] the test system is P388 murine leukemia cells. In words: In vitro cell-based cytotoxicity, parental P388 cells. As to conditions: Mus musculus, 72 h, median cytotoxic concentration, 3 days continuous exposure. On the procedure: The proliferation inhibition activity against the murine P388 cell line was measured as follows. Evaluation of a soluble tetrazolium/formazan assay for cell growth and drug sensitivity in culture, using human and other tumor cell lines, was done according to the procedure described in Cancer Res. 1988, 48, 4827-4833. Cells were plated at 4000 cells/well in 96 well microtiter plates and 24 h later drugs were added and serially diluted. The cells were incubated at 37° C. for 72 h, at which time a tetrazolium dye, XTT, containing phenazine methosulfate was added. A dehydrogenase enzyme in live cells reduced the XTT to a form that absorbs light at 450 nm, which could be quantitated spectrophotometrically. The greater the absorbance the greater the number of live cells. The results are expressed as an IC50, which is the drug concentration required to inhibit cell proliferation (i.e., absorbance at 450 nm) to 50% of that of untreated control cells.
(§1) Similarly, P338 murine leukemia cells were maintained in RPMI 1640 supplemented with 20% fetal bovine serum and 10 μM 2-mercaptoethanol. A camptothecin resistant subline, P388/CPT45, was selected for resistance to camptothecin and is over 1000-fold resistant to this compound (Woessner, et al. Oncol. Res. 1992, 4, 481-488).
(§2) In vitro cytotoxicity was assessed in tissue culture cells by MTS (3-(4,5-dimethylthiazol-2-yl)-5-(3-carboxymethoxyphenyl)-2-(4-sulphenyl)-2H-tetrazolium, inner salt) assay (Riss and Moravec, Mol. Biol. Cell 1992, 3 (Suppl.), 184a). Cells were plated at 8,000 cell/well in 96 well microtiter plates and 24 hours later serial dilutions of the test compounds were made and added to the cells. The cells were incubated at 37° C. for 72 hours, at which time the tetrazolium dye, MTS at 333 μg/ml (final concentration), in combination with the electron coupling agent phenazine methosulfate at 25 μM (final concentration) was added. A dehydrogenase enzyme in live cells reduces the MTS to a form that absorbs light at 492 nm which can be quantitated spectrophotometrically. The greater the absorbance the greater the number of live cells. The results are expressed as an IC50, which is the drug concentration required to inhibit cell proliferation (i.e., absorbance at 492 nm) to 50% of that of untreated control cells.
The cytotoxic activity for certain compounds of the present invention, in both parental P388 and the camptothecin-resistant P388/CPT45 cell lines are shown below in Table I.

In series [3] the test system is P388/CPT45 cells. In words: Cytotoxicity in camptothecin-resistant P388/CPT45 cells relative to parental P388 (selectivity index R/S). The series is classed as cell-based, murine. As to conditions: IC50 P388/CPT45 cells divided by IC50 parental P388 cells.
Description: The present invention includes fluoro sugar and other sugar derivatives of indolopyrrolocarbazoles of formula (I), as defined above. […] Most importantly, the instant invention describes topo I active compounds, related to compounds disclosed in WO 98/07433 and co-pending U.S. application, Ser. No. 08/914566 (both herein incorporated by reference), which display a surprising and unexpected selectivity index when evaluated for cytotoxicity in certain cell lines which express normal levels of topo I required for cell proliferation, compared with cell lines that are deficient in or underexpress topo I. Said “selectivity index” (R/S) was generated by dividing the cytotoxic IC50 of a particular compound against a camptothecin-resistant murine leukemia cell line, P388/CPT45, by the IC50 generated when using the parent P388 cell line. […] A level of selectivity was judged to be advantageous and beneficial in, for example, modulating potential undesirable side effects and/or toxicity. The compounds of the present invention were selected from compounds generically disclosed in WO 98/07433 and co-pending U.S. patent application, Ser. No. 08/914566, on the basis of an unexpected and unpredictable selectivity index (see Table I and II). […] Simple changes in the substitution of the sugar portion or the indolopyrrolocarbazole portion of the present invention will change the selectivity. This change in selectivity is not predictable by one skilled in the art.
as §1, §2
The selectivity index (R/S) is defined as the ratio obtained by dividing the IC50 value obtained using P388/CPT45 cells by that obtained using parental P388 cells. The R/S ratios used to determine the relative topo I selectivity of selected compounds of this invention are shown below in Table I.

A further series concerns HT-29 colon carcinoma. In words: In vivo antitumor activity, HT-29 xenograft. Also noted: species or system Balb/c athymic (nude) female mice. On the procedure: Compounds: Examples of this invention were administered in an appropriate vehicle such as cremophor/ethanol/water (10%/10%/80%), in normal saline, water/carboxymethylcellulose vehicle.
All compounds were tested at several dose levels, with attempts each time to achieve their maximum tolerated dose (MTD). […] The optimal dose (OD) was the dose producing the best therapeutic effect, and was usually, but not always, synonymous with the MTD.
Tumors: Human tumors (HCT-116 and HT-29 colon carcinomas) were grown as xenografts in Balb/c athymic (nude) female mice. Antitumor assays. All tumors were implanted subcutaneously (sc) as 3-4mm fragments using a 13 gauge trochar. There were generally eight mice per treatment and control group. When treatment was delayed until tumors had obtained a certain size (weight), referred to as a staged tumor experiment (expt.), tumor-bearing mice were selected so that their tumors fell within a limited range of sizes for the particular expt.
Tumors were measured by calipers, and tumor weight calculated by the formula length (mm) times (×) width (mm)^2/2=tumor weight (mg). The median time (in days) to reach a predetermined tumor target size (for example, 500 mg) for untreated, control (C) mice relative to the time to reach the same target size for treated (T) mice, was calculated as a T-C value. T-C values were divided by the tumor volume doubling time (TVDT), and multiplied by 3.32, to yield a gross log cell kill (LCK) value, [i.e., (T-C)/TVDT×3.32=LCK].
A mouse was considered cured if there was no palpable tumor after a period of time equal to 10×TVDT post-reatment (Rx).

Series [4] has as its system P388/CPT45 cells. Conditions: P388/CPT45 versus parental P388; cited from earlier work.

Regarding `O=C1NC(=O)c2c1c1c3cc(F)c(F)cc3[nH]c1c1c2c2cc(F)c(F)cc2n1[C@@H]1O[C@H](CO)[C@@H](F)[C@H](O)[C@H]1O` [Example 28, 12-[4-Deoxy-4-fluoro-β-D-glucopyranosyl]-2,3,9,10-tetrafluoro-12,13-dihydro-5H-indolo[2,3-a]pyrrolo[3,4-c]carbazole-5,7(6H)-dione], in series [1], the EC50 was 50 nM. Besides, the IC50 in series [2] turned out to be 4 nM. Further, the “Selectivity Index R/S” value in the series on P388/CPT45 cells [3] was determined as 499.2.
Consider `O=C1NC(=O)c2c1c1c3cc(F)c(F)cc3sc1c1c2c2cc(F)c(F)cc2n1[C@@H]1O[C@H](CO)C(F)(F)[C@H](O)[C@H]1O` [Example 30, 12-[4,4-Difluoro-4-deoxy-β-D-glucopyranosyl]-2,3,9,10-tetrafluoro-5H, 13H-benzo[b]thienyl[2,3-a]pyrrolo[3,4c]carbazole-5,7(6H)-dione], for which the concentration giving a half-maximal response (EC50) in series [1] was 10 nM. Further, the “Selectivity Index R/S” value with P388/CPT45 cells [3] stood at 575.5. Further, the “LCK (gross log cell kill)” value in the series with HT-29 colon carcinoma (HT29 sc xenograft in nude mice, at optimal or maximum tolerated dose, CPT-11 run as comparator in same experiment) is on record as over 1.4. Besides, the “MTD (optimal or maximum tolerated dose level tested)” value in the series with HT-29 colon carcinoma (HT29 xenograft experiment, nude mice) was 16 mpkpi.
Consider `O=C1NC(=O)c2c1c1c3cc(F)ccc3[nH]c1c1c2c2cc(F)ccc2n1[C@@H]1O[C@H](CO)C[C@H](O)[C@H]1O` [Example 31, 12-[4-Deoxy-β-D-glucopyranosyl]-3,9-difluoro-12,13-dihydro-5H-indolo[2,3-a]pyrrolo[3,4-c]carbazole-5,7(6H)-dione], for which the 50% effective concentration (EC50) in series [1] turned out to be 80 nM. In addition, the half-maximal inhibitory concentration (IC50) in series [2] was 4 nM. For the same compound, in the series on P388/CPT45 cells [3], the “Selectivity Index R/S” value worked out at 720.7.
As for `O=C1NC(=O)c2c1c1c3cc(F)ccc3sc1c1c2c2cc(F)ccc2n1[C@@H]1O[C@H](CSc2nccc(O)n2)[C@@H](O)[C@H](O)[C@H]1O` [Example 35], the EC50 in series [1] was 240 nM. Moreover, in series [2], the IC50 was over 7680 nM. For the same compound, the “Selectivity Index R/S” value with P388/CPT45 cells [3] was under 1.0.
Take `NC[C@H]1O[C@@H](n2c3ccc(F)cc3c3c4c(c5c6ccccc6sc5c32)C(=O)NC4=O)[C@H](O)[C@@H](O)[C@@H]1O` [Example 36]: the EC50 in series [1] was found to be 180 nM. Further, in series [2], the IC50 amounted to 8990 nM. The “Selectivity Index R/S” value in the series on P388/CPT45 cells [3] is under 1.1.
On to `O=C1NC(=O)c2c1c1c3ccc(F)cc3[nH]c1c1c2c2ccc(F)cc2n1[C@@H]1O[C@H](CO)[C@@H](O)[C@H](O)[C@H]1O` [Example 37], for which the EC50 in series [1] worked out at 240 nM. Moreover, the IC50 in series [2] amounted to 260 nM. In the series on P388/CPT45 cells [3], the “Selectivity Index R/S” value was 8.7.
For `O=C1NC(=O)c2c1c1c3cc(F)ccc3[nH]c1c1c2c2cc(F)ccc2n1[C@H]1O[C@H](CF)[C@@H](O)[C@H](O)[C@H]1O` [Example 39], the EC50 in series [1] was determined as 100 nM. Also, the IC50 in series [2] is 235 nM. Besides, the “Selectivity Index R/S” value with P388/CPT45 cells [3] was 5.0.
In the case of `NC[C@@H]1C[C@H](O)[C@@H](O)[C@H](n2c3ccc(F)cc3c3c4c(c5c6cc(F)ccc6[nH]c5c32)C(=O)NC4=O)O1` [Example 41], the EC50 in series [1] amounted to 20 nM. Besides, the IC50 in series [2] was found to be 72 nM. In the series with P388/CPT45 cells [3], the “Selectivity Index R/S” value was 27.3.
Turning to `CC[C@@]1(O)C(=O)OCc2c1cc1n(c2=O)Cc2cc3ccccc3nc2-1` [camptothecin], the “fold resistance of P388/CPT45 subline” value with P388/CPT45 cells [4] is recorded as “over 1000 fold”.
